US20070249620A1, “Urea Derivative” (priority 2004, published 2007)

What was measured:
[1] = target: T1, mouse DGAT1 (Mus musculus, UniProt Q9Z2A7); assay: DGAT1 inhibitory effect test (microsome fraction, [14C]-oleoyl-CoA, triglyceride radioactivity by TLC); format: biochemical; settings: 0.5 h; concentration of the test compound 0.1 μg/ml; mouse DGAT1 microsomes, 23° C., 30 minutes; read-out: Inhibitory ratio
T1 construct: made in house; host or cells: insect cells (High Five, Sf9, Sf21, etc.), baculovirus expression system (Invitrogen)
T1 sequence (Q9Z2A7 1-498): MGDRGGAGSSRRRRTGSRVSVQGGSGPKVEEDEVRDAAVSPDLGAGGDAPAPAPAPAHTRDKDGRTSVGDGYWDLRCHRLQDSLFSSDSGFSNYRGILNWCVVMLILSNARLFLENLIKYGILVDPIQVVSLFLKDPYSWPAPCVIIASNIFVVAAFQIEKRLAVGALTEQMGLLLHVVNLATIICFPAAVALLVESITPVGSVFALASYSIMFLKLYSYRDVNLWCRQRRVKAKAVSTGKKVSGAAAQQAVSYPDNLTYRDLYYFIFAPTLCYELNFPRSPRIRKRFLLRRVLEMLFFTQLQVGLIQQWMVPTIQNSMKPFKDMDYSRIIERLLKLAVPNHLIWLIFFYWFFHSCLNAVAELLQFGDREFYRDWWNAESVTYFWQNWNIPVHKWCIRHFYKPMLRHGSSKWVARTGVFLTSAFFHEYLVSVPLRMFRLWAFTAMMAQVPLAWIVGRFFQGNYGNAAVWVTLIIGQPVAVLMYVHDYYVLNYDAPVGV
Outline: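 Inhibition was scored from radiolabelled triglyceride separated by TLC, relative to vehicle and net of a 0-min background. The reaction ran for 30 min at room temperature (23 °C) in Tris-HCl pH 8.0 with MgCl2, BSA and Triton X-100. Substrates were 30 μM [14C]-oleoyl-CoA and 0.5 mM dioleoylglycerol, with mouse DGAT1 microsomes from baculovirus-infected insect cells as enzyme.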

SMILES	inhibition at 0.1 µg/mL [1]	melting point
COc1ccc(C)cc1NC(=O)Nc1ccc(N2CCN(C(=O)Nc3ccc(OCCO)cc3Cl)C(C)C2)cc1 (centres unmarked) [Example 252, 4-{4-[3-(2-methoxy-5-methyl-phenyl)-ureido]-phenyl}-2-methyl-piperazine-1-carboxylic acid [2-chloro-4-(2-hydroxy-ethoxy)-phenyl]-amide]	≥ 50%	129 to 131 °C
COc1ccc(C)cc1NC(=O)Nc1ccc(N2CCN(C(=O)Nc3ccc(OCCO)cc3Cl)CC2)c(F)c1 [Example 253, 4-{2-fluoro-4-[3-(2-methoxy-5-methyl-phenyl)-ureido]-phenyl}-piperazine-1-carboxylic acid [2-chloro-4-(2-hydroxy-ethoxy)-phenyl]-amide]	≥ 50%	118 to 120 °C
O=C(Nc1ccc(N2CCN(C(=O)Nc3ccc(OCCO)cc3Cl)CC2)cc1)Nc1ccccc1F [Example 255, 4-{4-[3-(2-fluoro-phenyl)-ureido]-phenyl}-piperazine-1-carboxylic acid [2-chloro-4-(2-hydroxy-ethoxy)-phenyl]-amide]	≥ 50%	213 to 217 °C
COc1ccc(C)cc1NC(=O)Nc1ccc(C2=CCN(C(=O)Nc3ccc(OCCO)cc3Cl)CC2)cc1 [Example 256, 4-{4-[3-(2-methoxy-5-methyl-phenyl)-ureido]-phenyl}-3,6-dihydro-2H-pyridine-1-carboxylic acid [2-chloro-4-(2-hydroxy-ethoxy)-phenyl]-amide]	≥ 50%	117 to 120 °C
COc1ccc(C)cc1NC(=O)Nc1ccc(C2CCN(C(=O)Nc3ccc(OCCO)cc3Cl)CC2)cc1 [Example 257, 4-{4-[3-(2-methoxy-5-methyl-phenyl)-ureido]-phenyl}-piperidine-1-carboxylic acid [2-chloro-4-(2-hydroxy-ethoxy)-phenyl]-amide]	≥ 50%	134 to 137 °C
COc1ccccc1NC(=O)Nc1ccc(C2=CCN(C(=O)Nc3ccc(OCCO)cc3Cl)CC2)cc1 [Example 258, 4-{4-[3-(2-methoxy-phenyl)-ureido]-phenyl}-3,6-dihydro-2H-pyridine-1-carboxylic acid [2-chloro-4-(2-hydroxy-ethoxy)-phenyl]-amide]	≥ 50%	120 to 125 °C
COc1cc(NC(=O)Nc2ccc(C3=CCN(C(=O)Nc4ccc(OCCO)cc4Cl)CC3)cc2)cc(OC)c1 [Example 259, 4-{4-[3-(3,5-dimethoxy-phenyl)-ureido]-phenyl}-3,6-dihydro-2H-pyridine-1-carboxylic acid [2-chloro-4-(2-hydroxy-ethoxy)-phenyl]-amide]	≥ 50%	135 to 139 °C
O=C(Nc1ccc(C2=CCN(C(=O)Nc3ccc(OCCO)cc3Cl)CC2)cc1)Nc1ccccc1F [Example 260, 4-{4-[3-(2-fluoro-phenyl)-ureido]-phenyl}-3,6-dihydro-2H-pyridine-1-carboxylic acid [2-chloro-4-(2-hydroxy-ethoxy)-phenyl]-amide]	≥ 50%	173 to 178 °C
COc1ccccc1NC(=O)Nc1ccc(C2CCN(C(=O)Nc3ccc(OCCO)cc3Cl)CC2)cc1 [Example 261, 4-{4-[3-(2-methoxy-phenyl)-ureido]-phenyl}-piperidine-1-carboxylic acid [2-chloro-4-(2-hydroxy-ethoxy)-phenyl]-amide]	≥ 50%	166 to 168 °C
COc1cc(NC(=O)Nc2ccc(C3CCN(C(=O)Nc4ccc(OCCO)cc4Cl)CC3)cc2)cc(OC)c1 [Example 262, 4-{4-[3-(3,5-dimethoxy-phenyl)-ureido]-phenyl}-piperidine-1-carboxylic acid [2-chloro-4-(2-hydroxy-ethoxy)-phenyl]-amide]	≥ 50%	101 to 105 °C
